Tested on: MV-4-11 cells
Assay: Gene expression microarray analysis (Affymetrix PrimeView) and GSEA
Format: cell-based, human
Design: RFU PODN (11730768_x_at) / Fold change /veh PODN (11730768_x_at) / RFU LINC00158 (11744669_a_at) / Fold change /veh LINC00158 (11744669_a_at) / RFU DUSP10 (11751237_a_at) / Fold change /veh DUSP10 (11751237_a_at) / RFU ID3 (11757404_x_at) / Fold change /veh ID3 (11757404_x_at) / RFU PLEKHG5 (11737974_s_at) / Fold change /veh PLEKHG5 (11737974_s_at) / RFU LRRC4B (11730491_at) / Fold change /veh LRRC4B (11730491_at) / RFU GIMAP4 (11747438_a_at) / Fold change /veh GIMAP4 (11747438_a_at) / RFU KRT8 (11758183_x_at) / Fold change /veh KRT8 (11758183_x_at) / RFU CNN1 (11734310_a_at) / Fold change /veh CNN1 (11734310_a_at) / RFU VPS37D (11726825_at) / Fold change /veh VPS37D (11726825_at) / RFU C10orf10 (11716522_x_at) / Fold change /veh C10orf10 (11716522_x_at) / RFU KIR2DL2 /// KIR2DL4 /// KIR2DL5A /// KIR2DL5B /// KIR2DS1 /// KIR2DS2 /// KIR2DS3 /// KIR2DS4 /// KIR3DL3 /// KIR3DL3 /// KIR3DS1 (11738374_at) / Fold change /veh KIR2DL2 /// KIR2DL4 /// KIR2DL5A /// KIR2DL5B /// KIR2DS1 /// KIR2DS2 /// KIR2DS3 /// KIR2DS4 /// KIR3DL3 /// KIR3DL3 /// KIR3DS1 (11738374_at) / RFU C1QL1 (11718748_at) / Fold change /veh C1QL1 (11718748_at) / RFU TMPRSS4 (11747572_a_at) / Fold change /veh TMPRSS4 (11747572_a_at) / RFU HAMP (11756126_x_at) / Fold change /veh HAMP (11756126_x_at) / RFU RNFT2 (11725882_a_at) / Fold change /veh RNFT2 (11725882_a_at) / RFU NR4A2 (11747474_a_at) / Fold change /veh NR4A2 (11747474_a_at) / RFU ABCC12 (11746883_a_at) / Fold change /veh ABCC12 (11746883_a_at) / RFU TMEM136 (11760407_x_at) / Fold change /veh TMEM136 (11760407_x_at) / RFU CLDN22 /// WWC2 (11732394_at) / Fold change /veh CLDN22 /// WWC2 (11732394_at) / RFU HLA-DPB1 (11760878_x_at) / Fold change /veh HLA-DPB1 (11760878_x_at) / RFU SPINT1 (11716480_a_at) / Fold change /veh SPINT1 (11716480_a_at) / RFU GAP43 (11754022_s_at) / Fold change /veh GAP43 (11754022_s_at) / RFU A4GNT (11735810_at) / Fold change /veh A4GNT (11735810_at) / RFU PRB3 (11715151_x_at) / Fold change /veh PRB3 (11715151_x_at) / RFU TUBB4B (11761932_at) / Fold change /veh TUBB4B (11761932_at) / RFU CAPN14 (11732068_a_at) / Fold change /veh CAPN14 (11732068_a_at) / RFU TMCC2 (11721928_a_at) / Fold change /veh TMCC2 (11721928_a_at) / RFU IRGQ (11745062_a_at) / Fold change /veh IRGQ (11745062_a_at) / RFU FAM174B (11720279_a_at) / Fold change /veh FAM174B (11720279_a_at) / RFU TMPRSS4 (11748680_a_at) / Fold change /veh TMPRSS4 (11748680_a_at) / RFU FAM212B (11763350_a_at) / Fold change /veh FAM212B (11763350_a_at) / RFU PLEKHG5 (11743358_a_at) / Fold change /veh PLEKHG5 (11743358_a_at) / RFU ZSCAN30 (11745921_a_at) / Fold change /veh ZSCAN30 (11745921_a_at) / RFU CMKLR1 (11741424_a_at) / Fold change /veh CMKLR1 (11741424_a_at) / RFU LOC101060620 /// MAPK8IP1 (11723275_at) / Fold change /veh LOC101060620 /// MAPK8IP1 (11723275_at) / RFU SPTSSB (11747773_x_at) / Fold change /veh SPTSSB (11747773_x_at) / RFU PRSS12 (11739890_at) / Fold change /veh PRSS12 (11739890_at) / RFU BIN1 (11741810_x_at) / Fold change /veh BIN1 (11741810_x_at) / RFU WNT11 (11732464_a_at) / Fold change /veh WNT11 (11732464_a_at) / RFU C10orf10 (11716521_a_at) / Fold change /veh C10orf10 (11716521_a_at) / RFU C5orf56 (11738089_at) / Fold change /veh C5orf56 (11738089_at) / RFU CYB561 (11721691_x_at) / Fold change /veh CYB561 (11721691_x_at) / RFU ANKRD19P (11752326_a_at) / Fold change /veh ANKRD19P (11752326_a_at) / RFU OR2T12 /// OR2T33 /// OR2T8 (11738714_s_at) / Fold change /veh OR2T12 /// OR2T33 /// OR2T8 (11738714_s_at) / RFU VCAN (11748164_a_at) / Fold change /veh VCAN (11748164_a_at) / RFU JSRP1 (11732532_at) / Fold change /veh JSRP1 (11732532_at) / RFU KRTAP10-11 (11738290_x_at) / Fold change /veh KRTAP10-11 (11738290_x_at) / RFU MYO3A (11730013_a_at) / Fold change /veh MYO3A (11730013_a_at) / RFU EBF3 (11725865_a_at) / Fold change /veh EBF3 (11725865_a_at) / RFU CAMK2N1 (11719241_x_at) / Fold change /veh CAMK2N1 (11719241_x_at) / RFU C5orf56 (11738088_a_at) / Fold change /veh C5orf56 (11738088_a_at) / RFU OLFML3 (11715873_a_at) / Fold change /veh OLFML3 (11715873_a_at) / RFU LOC100653217 /// NTM (11731650_a_at) / Fold change /veh LOC100653217 /// NTM (11731650_a_at) / RFU MAPK11 (11762145_a_at) / Fold change /veh MAPK11 (11762145_a_at) / RFU FIZ1 (11724087_x_at) / Fold change /veh FIZ1 (11724087_x_at) / RFU OASL (11726364_x_at) / Fold change /veh OASL (11726364_x_at) / RFU SOX15 (11748057_x_at) / Fold change /veh SOX15 (11748057_x_at) / RFU CD79A (11719716_a_at) / Fold change /veh CD79A (11719716_a_at) / RFU HIST1H1D (11736915_at) / Fold change /veh HIST1H1D (11736915_at) / RFU CASKIN2 (11723855_a_at) / Fold change /veh CASKIN2 (11723855_a_at) / RFU LOC730098 (11760151_x_at) / Fold change /veh LOC730098 (11760151_x_at) / RFU OR4N2 (11742367_at) / Fold change /veh OR4N2 (11742367_at) / RFU PRRT2 (11749266_a_at) / Fold change /veh PRRT2 (11749266_a_at) / RFU SNX32 (11753110_a_at) / Fold change /veh SNX32 (11753110_a_at) / RFU CDHR5 (11726645_a_at) / Fold change /veh CDHR5 (11726645_a_at) / RFU RCAN1 (11760418_a_at) / Fold change /veh RCAN1 (11760418_a_at) / RFU FAM167A (11723789_a_at) / Fold change /veh FAM167A (11723789_a_at) / RFU FAM26E (11764081_at) / Fold change /veh FAM26E (11764081_at) / RFU ISYNA1 (11749810_s_at) / Fold change /veh ISYNA1 (11749810_s_at) / RFU ACY1 (11761880_at) / Fold change /veh ACY1 (11761880_at) / RFU 11764098_at / Fold change /veh 11764098_at / RFU SAMD14 (11745864_x_at) / Fold change /veh SAMD14 (11745864_x_at) / RFU NPB (11741838_a_at) / Fold change /veh NPB (11741838_a_at) / RFU TMPRSS6 (11731388_a_at) / Fold change /veh TMPRSS6 (11731388_a_at) / RFU KRTAP10-2 (11738614_at) / Fold change /veh KRTAP10-2 (11738614_at) / RFU ARHGAP8 /// PRR5-ARHGAP8 (11727945_x_at) / Fold change /veh ARHGAP8 /// PRR5-ARHGAP8 (11727945_x_at) / RFU KRTAP5-7 /// NADSYN1 (11734609_at) / Fold change /veh KRTAP5-7 /// NADSYN1 (11734609_at) / RFU RASL12 (11751679_a_at) / Fold change /veh RASL12 (11751679_a_at) / RFU CDKN2B (11736163_a_at) / Fold change /veh CDKN2B (11736163_a_at) / RFU PRF1 (11729649_at) / Fold change /veh PRF1 (11729649_at) / RFU, ZNF638 /// ZNF638-IT1 / Fold change vs veh, ZNF638 /// ZNF638-IT1 / RFU, PANK3 / Fold change vs veh, PANK3 / RFU, SH3YL1 / Fold change vs veh, SH3YL1 / RFU, ZEB2 / Fold change vs veh, ZEB2 / RFU, NRIP1 / Fold change vs veh, NRIP1 / RFU, PTTG1IP / Fold change vs veh, PTTG1IP / RFU, CAPN2 / Fold change vs veh, CAPN2 / RFU, MED14 / Fold change vs veh, MED14 / RFU, SNORA58 / Fold change vs veh, SNORA58 / RFU, C1orf63 / Fold change vs veh, C1orf63 / RFU, LRRFIP1 / Fold change vs veh, LRRFIP1 / RFU, NDUFAF7 / Fold change vs veh, NDUFAF7 / RFU, SLC12A2 / Fold change vs veh, SLC12A2 / RFU, IBTK / Fold change vs veh, IBTK / RFU, ESF1 / Fold change vs veh, ESF1 / Fold change vs veh, TMEM50B / RFU, TAOK1 / Fold change vs veh, TAOK1 / RFU, ACBD3 / Fold change vs veh, ACBD3 / RFU, TMA16 / Fold change vs veh, TMA16 / RFU, RWDD3 / Fold change vs veh, RWDD3 / RFU, BCAT1 / Fold change vs veh, BCAT1 / RFU, EDEM3 / Fold change vs veh, EDEM3 / RFU, TMEM33 / Fold change vs veh, TMEM33 / RFU, WDR75 / Fold change vs veh, WDR75 / RFU, AHCTF1 / Fold change vs veh, AHCTF1 / RFU, TFRC / Fold change vs veh, TFRC / RFU, ZDHHC17 / Fold change vs veh, ZDHHC17 / RFU, NOM1 / Fold change vs veh, NOM1 / RFU, ARL8B / Fold change vs veh, ARL8B / RFU, ZBTB11 / Fold change vs veh, ZBTB11 / RFU, TAMM41 / Fold change vs veh, TAMM41 / RFU, KIAA1704 /// LOC100996395 / Fold change vs veh, KIAA1704 /// LOC100996395 / RFU, ING1 / Fold change vs veh, ING1 / RFU, TRMT61B / Fold change vs veh, TRMT61B / RFU, FUBP3 / Fold change vs veh, FUBP3 / RFU, TP53 / Fold change vs veh, TP53 / RFU, TNKS2 / Fold change vs veh, TNKS2 / RFU, ZFP14 / Fold change vs veh, ZFP14 / RFU, ACTR2 / Fold change vs veh, ACTR2 / RFU, PPP3R1 / Fold change vs veh, PPP3R1 / RFU, PIK3R1 / Fold change vs veh, PIK3R1 / RFU, HNRNPA1 / Fold change vs veh, HNRNPA1 / RFU, RNF170 / Fold change vs veh, RNF170 / RFU, ZNF28 / Fold change vs veh, ZNF28 / RFU, RNGTT / Fold change vs veh, RNGTT / RFU, OGT / Fold change vs veh, OGT / RFU, BRD1 / Fold change vs veh, BRD1 / RFU, MARS / Fold change vs veh, MARS / RFU, ZNF655 / Fold change vs veh, ZNF655 / RFU, FAHD1 / Fold change vs veh, FAHD1 / RFU, BDP1 / Fold change vs veh, BDP1 / RFU, LRRCC1 / Fold change vs veh, LRRCC1 / RFU, ARID1A / Fold change vs veh, ARID1A / RFU, ZNF146 / Fold change vs veh, ZNF146 / RFU, ZNF330 / Fold change vs veh, ZNF330 / RFU, GPN3 / Fold change vs veh, GPN3 / RFU, C9orf123 / Fold change vs veh, C9orf123 / RFU, N4BP2L2 / Fold change vs veh, N4BP2L2 / RFU, ARFIP1 / Fold change vs veh, ARFIP1 / RFU, FAM179B / Fold change vs veh, FAM179B / RFU, BCL10 / Fold change vs veh, BCL10 / RFU, UHRF1BP1L / Fold change vs veh, UHRF1BP1L / RFU, BET1 / Fold change vs veh, BET1 / RFU, CNOT2 / Fold change vs veh, CNOT2 / RFU, ZNF268 / Fold change vs veh, ZNF268 / Fold change vs veh, ZNF507 / RFU, DGCR2 / Fold change vs veh, DGCR2 / RFU, WDSUB1 / Fold change vs veh, WDSUB1 / Fold change vs veh, HSP90B1 /// MIR3652 / RFU, ADSS / Fold change vs veh, ADSS / RFU, GK / Fold change vs veh, GK / RFU, ZNF148 / Fold change vs veh, ZNF148 / RFU, TAF9 / Fold change vs veh, TAF9 / RFU, SLC1A5 / Fold change vs veh, SLC1A5 / RFU, SLMO2 / Fold change vs veh, SLMO2 / RFU, ABCC4 / Fold change vs veh, ABCC4 / RFU, LOC101060439 /// RAP1B / Fold change vs veh, LOC101060439 /// RAP1B / RFU, RFX7 / Fold change vs veh, RFX7 / RFU, GTPBP10 / Fold change vs veh, GTPBP10 / RFU, CNEP1R1 / Fold change vs veh, CNEP1R1 / RFU, BIVM-ERCC5 /// ERCC5 / Fold change vs veh, BIVM-ERCC5 /// ERCC5 / RFU, ILF3 / Fold change vs veh, ILF3 / RFU 11762660_at / Fold change /veh 11762660_at / RFU VCAN (11757783_s_at) / Fold change /veh VCAN (11757783_s_at) / RFU DDX43 (11728927_at) / Fold change /veh DDX43 (11728927_at) / RFU KRT8 (11758188_x_at) / Fold change /veh KRT8 (11758188_x_at) / RFU NKD1 (11759106_at) / Fold change /veh NKD1 (11759106_at) / RFU SRD5A1 (11742802_a_at) / Fold change /veh SRD5A1 (11742802_a_at) / RFU TPSAB1 /// TPSB2 (11721975_s_at) / Fold change /veh TPSAB1 /// TPSB2 (11721975_s_at) / RFU GSTM3 (11746129_a_at) / Fold change /veh GSTM3 (11746129_a_at) / RFU IL23R (11737362_x_at) / Fold change /veh IL23R (11737362_x_at) / RFU TMEM51 (11727254_a_at) / Fold change /veh TMEM51 (11727254_a_at) / RFU PIWIL2 (11732686_x_at) / Fold change /veh PIWIL2 (11732686_x_at) / RFU ORM1 (11744905_x_at) / Fold change /veh ORM1 (11744905_x_at) / RFU CCDC152 (11743942_at) / Fold change /veh CCDC152 (11743942_at) / RFU ECM1 (11717891_a_at) / Fold change /veh ECM1 (11717891_a_at) / RFU IL23R (11748794_a_at) / Fold change /veh IL23R (11748794_a_at) / RFU TNFAIP8L3 (11732012_x_at) / Fold change /veh TNFAIP8L3 (11732012_x_at) / RFU MBOAT4 (11741988_at) / Fold change /veh MBOAT4 (11741988_at) / RFU 11764193_at / Fold change /veh 11764193_at / RFU TMEM53 (11763286_at) / Fold change /veh TMEM53 (11763286_at) / RFU MAGEB2 (11727129_at) / Fold change /veh MAGEB2 (11727129_at) / RFU TMEM200A (11744735_a_at) / Fold change /veh TMEM200A (11744735_a_at) / RFU CCDC152 (11751479_a_at) / Fold change /veh CCDC152 (11751479_a_at) / RFU FAM211A (11726209_a_at) / Fold change /veh FAM211A (11726209_a_at) / RFU RGS16 (11746705_a_at) / Fold change /veh RGS16 (11746705_a_at) / RFU VCAN (11755009_s_at) / Fold change /veh VCAN (11755009_s_at) / RFU RHOB (11743442_s_at) / Fold change /veh RHOB (11743442_s_at) / RFU RGS16 (11720943_a_at) / Fold change /veh RGS16 (11720943_a_at) / RFU RGS16 (11720944_at) / Fold change /veh RGS16 (11720944_at) / RFU, VPS4B / Fold change vs veh, VPS4B / RFU, CREB1 / Fold change vs veh, CREB1 / RFU, DNAJC13 / Fold change vs veh, DNAJC13 / RFU, GNAQ / Fold change vs veh, GNAQ / RFU, CDK5R1 / Fold change vs veh, CDK5R1 / RFU, ZRANB3 / Fold change vs veh, ZRANB3 / RFU, CUL4A / Fold change vs veh, CUL4A / RFU, CCNY / Fold change vs veh, CCNY / RFU, UFL1 / Fold change vs veh, UFL1 / RFU, COG3 / Fold change vs veh, COG3 / RFU, DIAPH2 / Fold change vs veh, DIAPH2 / RFU, SKA2 / Fold change vs veh, SKA2 / RFU, AFF3 / Fold change vs veh, AFF3 / RFU, LMF1 / Fold change vs veh, LMF1 / RFU, IPO11 / Fold change vs veh, IPO11 / RFU, DFFB / Fold change vs veh, DFFB / RFU, FOXP1 / Fold change vs veh, FOXP1 / RFU, CARD8 / Fold change vs veh, CARD8 / RFU, STRN3 / Fold change vs veh, STRN3 / RFU, ADK / Fold change vs veh, ADK / RFU, RASSF2 / Fold change vs veh, RASSF2 / RFU, WIPF1 / Fold change vs veh, WIPF1 / RFU, LARP1B / Fold change vs veh, LARP1B / RFU, RASA1 / Fold change vs veh, RASA1 / RFU, RB1 / Fold change vs veh, RB1 / RFU, PPFIA1 / Fold change vs veh, PPFIA1 / RFU, MAT2A / Fold change vs veh, MAT2A / RFU, CCT5 / Fold change vs veh, CCT5 / RFU, WDR92 / Fold change vs veh, WDR92 / RFU, CUX1 / Fold change vs veh, CUX1 / RFU, TTC7A / Fold change vs veh, TTC7A / RFU, TMEM135 / Fold change vs veh, TMEM135 / RFU, DEPTOR / Fold change vs veh, DEPTOR / RFU, CPM / Fold change vs veh, CPM / RFU, DNAJB6 / Fold change vs veh, DNAJB6 / RFU, CACNA2D3 / Fold change vs veh, CACNA2D3 / RFU, DTX4 / Fold change vs veh, DTX4 / RFU, TFCP2 / Fold change vs veh, TFCP2 / RFU, GMCL1 /// GMCL1P1 / Fold change vs veh, GMCL1 /// GMCL1P1 / RFU, AEBP2 / Fold change vs veh, AEBP2 / RFU, SNHG1 /// SNORD22 /// SNORD25 /// SNORD26 /// SNORD27 /// SNORD28 /// SNORD29 /// SNORD31 / Fold change vs veh, SNHG1 /// SNORD22 /// SNORD25 /// SNORD26 /// SNORD27 /// SNORD28 /// SNORD29 /// SNORD31 / Fold change (Aza/veh), C12orf56 (ProbeSet 11735607_a_at) / Fold change (ACY-1035/veh), C12orf56 (ProbeSet 11735607_a_at) / Fold change (Aza/veh), FGFR1OP (ProbeSet 11751329_s_at) / Fold change (ACY-1035/veh), FGFR1OP (ProbeSet 11751329_s_at) / Fold change (Aza/veh), VPS36 (ProbeSet 11739960_a_at) / Fold change (ACY-1035/veh), VPS36 (ProbeSet 11739960_a_at) / RFU SYPL1 (11715823_x_at) / Fold change /veh SYPL1 (11715823_x_at) / RFU IGFBP7 (11715501_s_at) / Fold change /veh IGFBP7 (11715501_s_at) / RFU REEP3 (11722064_at) / Fold change /veh REEP3 (11722064_at) / RFU IGLL1 (11728026_x_at) / Fold change /veh IGLL1 (11728026_x_at): dose or concentration left out as unconfirmed
Details: MV-4-11 cells, 48 hours

## Nc1ccc(-c2cccs2)cc1NC(=O)c1ccc2c(c1)cc(C1CC1)n2CCN1CCOCC1 [ACY-1035]
  RFU KRTAP5-7 /// NADSYN1 (11734609_at): 11.39 RFU
